Data: US20210230203A1, “Amphiphilic Kanamycin Compositions and Methods” (priority 2020, published 2021)
Values after ≈ are worked out from the molar mass of the structure shown.

Columns and labels:
Candida auris = assay: MIC against yeast, CLSI M27 & M38 (Table 2); settings: 24-72 hours
Fusarium = assay: MIC against various species, CLSI M27 & M38 (Table 4); type: cell-based; settings: 24-72 hours
Candida albicans MYA2876 = assay: MIC against fungal strains (Table 1); type: cell-based; settings: Candida albicans MYA2876
L. prolificans = assay: MIC against various species, CLSI M27 & M38 (Table 4); settings: L. prolificans LP1; Table 4; RPMI 0.165M MOPS; 24-72 hours
Coccidioldes sp. = assay: microbe, parasite or virus in culture; type: cell-based, Coccidioides species; settings: Table 3, RPMI 0.165M MOPS, 24-72 hours
Scedosporium = assay: MIC against various species, CLSI M27 & M38 (Table 4); settings: 24-72 hours
Saksenaea sp. = assay: MIC against filamentous and dimorphic fungi, CLSI M27 & M38 (Table 3); type: cell-based, Saksenaea species; settings: 24-72 hours
[1] = tested on: S. aureus (ATCC 33591) MRSA; type: cell-based
P. variatii = assay: MIC against filamentous and dimorphic fungi, CLSI M27 & M38 (Table 3); type: cell-based, Paecilomyces variotii; settings: P. variatii MYA-3630, RPMI 0.165M MOPS, 24-72 hours
[2] = Candida auris CAU4, RPMI 0.165M MOPS
[3] = Candida auris CAU5, RPMI 0.165M MOPS
[4] = Candida auris CAU6, RPMI 0.165M MOPS
[5] = Candida auris CAU7, RPMI 0.165M MOPS
[6] = Candida auris DI17-46, RPMI 0.165M MOPS
[7] = Candida auris DI17-47, RPMI 0.165M MOPS
[8] = Candida auris DI17-48, RPMI 0.165M MOPS
[9] = Scedosporium SA1, RPMI 0.165M MOPS
[10] = Scedosporium SB1, RPMI 0.165M MOPS
[11] = Saksenaea sp. SK1, RPMI 0.165M MOPS
[12] = Saksenaea sp. SK2, RPMI 0.165M MOPS
[13] = Saksenaea sp. SK3, RPMI 0.165M MOPS

Question: Which “Minimum inhibitory concentration 100%” value (Candida auris; Candida auris CAU3, RPMI 0.165M MOPS) does the source give for `CCCCCCCCCCCCCCCC(=O)NC[C@H]1O[C@H](O[C@H]2[C@H](O)[C@@H](O[C@H]3O[C@H](CO)[C@@H](O)[C@H](N)[C@H]3O)[C@H](N)C[C@@H]2N)[C@H](O)[C@@H](O)[C@@H]1O` [KI06] here?
Answer: 8 µg/mL (≈ 11.1 µM)

Question: What about the “Minimum inhibitory concentration 50%” value (Candida auris; [2]) of the same compound?
Answer: 8 µg/mL (≈ 11.1 µM)

Question: What about the “Minimum inhibitory concentration 100%” value (Candida auris; [2]) of the same compound?
Answer: 8 µg/mL (≈ 11.1 µM)

Question: And the “Minimum inhibitory concentration 50%” value (Candida auris; [3])?
Answer: 8 µg/mL (≈ 11.1 µM)

Question: And the “Minimum inhibitory concentration 100%” value (Candida auris; [3])?
Answer: 8 µg/mL (≈ 11.1 µM)

Question: And the “Minimum inhibitory concentration 50%” value (Candida auris; [4])?
Answer: 4 µg/mL (≈ 5.53 µM)

Question: And the “Minimum inhibitory concentration 100%” value (Candida auris; [4])?
Answer: 8 µg/mL (≈ 11.1 µM)

Question: What about the “Minimum inhibitory concentration 50%” value (Candida auris; [5]) of the same compound?
Answer: 4 µg/mL (≈ 5.53 µM)

Question: And the “Minimum inhibitory concentration 100%” value (Candida auris; [5])?
Answer: 8 µg/mL (≈ 11.1 µM)

Question: What about the “Minimum inhibitory concentration 50%” value (Candida auris; [6]) of the same compound?
Answer: 8 µg/mL (≈ 11.1 µM)

Question: And the “Minimum inhibitory concentration 100%” value (Candida auris; [6])?
Answer: 8 µg/mL (≈ 11.1 µM)

Question: What about the “Minimum inhibitory concentration 50%” value (Candida auris; [7]) of the same compound?
Answer: 8 µg/mL (≈ 11.1 µM)

Question: What about the “Minimum inhibitory concentration 100%” value (Candida auris; [7]) of the same compound?
Answer: 8 µg/mL (≈ 11.1 µM)

Question: What about the “Minimum inhibitory concentration 50%” value (Candida auris; [8]) of the same compound?
Answer: 4 µg/mL (≈ 5.53 µM)

Question: What about the “Minimum inhibitory concentration 100%” value (Candida auris; [8]) of the same compound?
Answer: 8 µg/mL (≈ 11.1 µM)

Question: And the “Minimum inhibitory concentration 50%” value (Fusarium; Fusarium FO1, RPMI 0.165M MOPS)?
Answer: 8 µg/mL (≈ 11.1 µM)

Question: What about the “Minimum inhibitory concentration 100%” value (Fusarium; Fusarium FO1, RPMI 0.165M MOPS) of the same compound?
Answer: 8 µg/mL (≈ 11.1 µM)

Question: What about the “Minimum inhibitory concentration 50%” value (Fusarium; Fusarium FO2, RPMI 0.165M MOPS) of the same compound?
Answer: 4 µg/mL (≈ 5.53 µM)

Question: And the “Minimum inhibitory concentration 100%” value (Fusarium; Fusarium FO2, RPMI 0.165M MOPS)?
Answer: 8 µg/mL (≈ 11.1 µM)

Question: And the “Minimum inhibitory concentration 50%” value (Fusarium; Fusarium FS1, RPMI 0.165M MOPS)?
Answer: 4 µg/mL (≈ 5.53 µM)

Question: What about the “Minimum inhibitory concentration 100%” value (Fusarium; Fusarium FS1, RPMI 0.165M MOPS) of the same compound?
Answer: 8 µg/mL (≈ 11.1 µM)

Question: What about the Minimum inhibitory concentration (Candida albicans MYA2876) of the same compound?
Answer: 8 µg/mL (≈ 11.1 µM)

Question: And the “Minimum inhibitory concentration 50%” value (L. prolificans)?
Answer: 2 µg/mL (≈ 2.77 µM)

Question: What about the “Minimum inhibitory concentration 100%” value (L. prolificans) of the same compound?
Answer: 2 µg/mL (≈ 2.77 µM)

Question: And the “Minimum inhibitory concentration 50%” value (Coccidioldes sp.; Coccidioldes sp. Cocci1)?
Answer: 4 µg/mL (≈ 5.53 µM)

Question: And the “Minimum inhibitory concentration 100%” value (Coccidioldes sp.; Coccidioldes sp. Cocci1)?
Answer: 8 µg/mL (≈ 11.1 µM)

Question: What about the “Minimum inhibitory concentration 50%” value (Coccidioldes sp.; Coccidioldes sp. Cocci2) of the same compound?
Answer: 4 µg/mL (≈ 5.53 µM)

Question: And the “Minimum inhibitory concentration 100%” value (Coccidioldes sp.; Coccidioldes sp. Cocci2)?
Answer: 8 µg/mL (≈ 11.1 µM)

Question: What about the “Minimum inhibitory concentration 50%” value (Coccidioldes sp.; Coccidioldes sp. DI17-143) of the same compound?
Answer: 4 µg/mL (≈ 5.53 µM)

Question: And the “Minimum inhibitory concentration 100%” value (Coccidioldes sp.; Coccidioldes sp. DI17-143)?
Answer: 8 µg/mL (≈ 11.1 µM)

Question: And the “Minimum inhibitory concentration 50%” value (Scedosporium; [9])?
Answer: 2 µg/mL (≈ 2.77 µM)

Question: And the “Minimum inhibitory concentration 100%” value (Scedosporium; [9])?
Answer: 4 µg/mL (≈ 5.53 µM)

Question: And the “Minimum inhibitory concentration 50%” value (Scedosporium; [10])?
Answer: 1 µg/mL (≈ 1.38 µM)

Question: What about the “Minimum inhibitory concentration 100%” value (Scedosporium; [10]) of the same compound?
Answer: 8 µg/mL (≈ 11.1 µM)

Question: And the “Minimum inhibitory concentration 50%” value (Saksenaea sp.; [11])?
Answer: 1 µg/mL (≈ 1.38 µM)

Question: And the “Minimum inhibitory concentration 100%” value (Saksenaea sp.; [11])?
Answer: 1 µg/mL (≈ 1.38 µM)

Question: What about the “Minimum inhibitory concentration 50%” value (Saksenaea sp.; [12]) of the same compound?
Answer: 1 µg/mL (≈ 1.38 µM)

Question: What about the “Minimum inhibitory concentration 100%” value (Saksenaea sp.; [12]) of the same compound?
Answer: 2 µg/mL (≈ 2.77 µM)

Question: And the “Minimum inhibitory concentration 50%” value (Saksenaea sp.; [13])?
Answer: 1 µg/mL (≈ 1.38 µM)

Question: What about the “Minimum inhibitory concentration 100%” value (Saksenaea sp.; [13]) of the same compound?
Answer: 2 µg/mL (≈ 2.77 µM)

Question: And the Minimum inhibitory concentration [1]?
Answer: 16 µg/mL (≈ 22.1 µM)

Question: And the “Minimum inhibitory concentration 50%” value (P. variatii)?
Answer: 8 µg/mL (≈ 11.1 µM)

Question: What about the “Minimum inhibitory concentration 100%” value (P. variatii) of the same compound?
Answer: 16 µg/mL (≈ 22.1 µM)
